The text below walks through data of patent US8110654B2, “T cell epitope peptides of ovarian cancer anti-idiotypic antibody 6B11 and use thereof” (Peking University People;s Hospital, priority 2006, dated 2012).

One experiment deals with HLA-A2 (Homo sapiens, UniProt P04439, D140Y/D185E/D98H/E176V/E277Q/G131W/G231S/I119V/I121R/I166T/I218V/L300P/L318F/N151K/N90K/P208A/P217A/Q86G/Q94H/R138H/R169H/T345S). As to the kind of experiment: T2 cell binding assay (HLA class I expression on T2 cells, confocal microscopy). As to T2 binding: key: +++: high binding capacity; ++: moderate binding capacity; +: low binding capacity. Format: cell-based. The following applies: for binding capacity in T2 cell binding assay (in words): T2 cells co-incubated with peptide 24 hours; for T2 binding: T2 cells co-incubated with peptide (0.3, 3, 30 μg/ml) 24 hours, HLA class I surface expression. As for the experimental part: The peptides obtained by […] method and the VH CDR1 and VL CDR2 region peptides were subject to T2 cell binding assay. T2 cells were co-incubated with each peptides in different concentrations (0.3 μg/ml, 3 μg/ml and 30 μg/ml) for 24 hours and then co-incubated with anti-human MHC class I antibodies. The expression profile of HLA class I molecules on the surface of T2 cells was analyzed by confocal microscopy. […] They were synthesized together with the CDR peptides of the anti-idiotype antibody for screening CTL epitope peptides.

The test system of experiment [1] is anti-idiotype antibody 6B11-CTLs (reacting cells). The experiment is described as follows: BrdU ELISA cell proliferation assay, 6B11-CTLs stimulated by loaded DCs. Format: cell-based, human. The procedure: Peripheral blood was drawn from HLA-A2 healthy human subjects. After EDTA anti-coagulation treatment, peripheral blood monocytes were isolated using Ficoll lymphocyte isolation 1×10^7 monocytes/well and AIM-V culture medium (containing 5% human AB serum) was added to 1 ml. The cells were incubated at 37° C. under 5% CO2 for 2 hours. Non-adherent cells were drawn and removed as lymphocytes and stored in liquid nitrogen for further use. The adherent cells were monocytes.
The monocytes isolated from said 6-well plates were added with 2 ml AIM-V culture medium (containing 5% human AB serum)/well. Recombinant human granulocyte-macrophage colony-stimulating factor (rh GM-CSF) and recombinant human interleukin-4 (rh IL-4) were added simultaneously both to a final concentration of 1000 U/ml, for induced incubation. On Day 4, 1 ml AIM-V culture medium (containing 5% human AB serum) was supplemented, and rh GM-CSF and rh IL-4 of the same concentration as mentioned above were also supplemented. On Day 6, 1 ml AIM-V culture medium (containing 5% human AB serum) was supplemented again. At the same time, recombinant human tumor necrosis factor-α (rh TNF-α), recombinant human α-interferon (rh IFN-α) and recombinant human interleukin-6 (rh IL-6) were added, all to a final concentration of 1000 U/ml, and prostaglandin E2 (PGE2) was added to a final concentration of 1 μg/ml. Co-incubation lasted 24 hours for inducing mature DCs.
On Day 4 during incubation of DCs, the culture medium, rh GM-CSF and rh IL-4 were supplemented. At the same time, anti-idiotype antibody 6B11 was added to a final concentration of 40 μg/ml for loading. The loaded cells were stored as stimulating cells for further use.
Mature DCs induced were harvested, washed and adjusted to a concentration of 1×10^6 cells/ml. Six CDR peptides (SEQ ID NOs: 1-6, see Table 1, artificially synthesized) in a final concentration of 30 μg/ml respectively, or each peptide of 30 μg/ml together with keyhole limpet hemocyanin (KLH) of 5 μg/ml were added for loading. The loaded cells were stored as stimulating cells for further use.
The freeze-stored autologous lymphocytes were stimulated by DCs loaded with anti-idiotype antibody 6B11 (anti-Id DCs), to obtain CTLs specific to anti-idiotype antibody 6B11 (6B11-CTLs). One period consists of 7 days. On Day 3 of every period, 10 U/ml recombinant human interleukin-2 (rh IL-2) was supplemented. Finally, anti-idiotype antibody 6B11-CTLs were obtained after a one- or three-period stimulation.
All the CDR peptides of anti-idiotype antibody 6B11 (6 peptides) were synthesized artificially. The peptides were screened for Th epitope peptides by cell proliferation assay. Anti-idiotype antibody 6B11-CTLs stimulated for one period were used as reacting cells. DCs loaded with anti-idiotype antibodies and peptides respectively were used as stimulating cells. The reacting cells and the stimulating cells (in the ratio of 10:1) were co-incubated at 37° C. under 5% CO2 for 120 hours and then subject to BrdU ELISA cell proliferation assay. Each well contained 100 μl AIM-V culture medium and 1×10^5 anti-idiotype antibody 6B11-CTLs. Within the last 2 hours during stimulation, 10 μl BrdU labeling solution was added into each well and the fluid in the wells was removed. The cells were dried at 60° C. for 1 hour. 200 μl of FixDenat solution was added into each well. The reaction continued for 30 minutes at 37° C. for fixing DNA in the lymphocytes. Finally, 100 μl BrdU monoclonal antibody was added into each well for 90 minutes. The absorption value at 450 nm was read by an automatic microplate reader after substrate chromogenic reaction for detecting the proliferation of the cells. The group of DCs without loading and the group of phytohaemagglutinin (PHA) were used as negative and positive control respectively. […] Other peptides could not stimulate the proliferation of the reacting cells. […]

The test system of another experiment is CD4 T cells. The experiment is described as follows: BrdU cell proliferation assay after magnetic bead sorting of CD4 T cells. Format: cell-based, human. As to conditions: reacting cells sorted for CD4 T cells by magnetic beads. The procedure:
All the CDR peptides of anti-idiotype antibody 6B11 (6 peptides) were synthesized artificially. The peptides were screened for Th epitope peptides by cell proliferation assay. Anti-idiotype antibody 6B11-CTLs stimulated for one period were used as reacting cells. DCs loaded with anti-idiotype antibodies and peptides respectively were used as stimulating cells. The reacting cells and the stimulating cells (in the ratio of 10:1) were co-incubated at 37° C. under 5% CO2 for 120 hours and then subject to BrdU ELISA cell proliferation assay. Each well contained 100 μl AIM-V culture medium and 1×10^5 anti-idiotype antibody 6B11-CTLs. Within the last 2 hours during stimulation, 10 μl BrdU labeling solution was added into each well and the fluid in the wells was removed. The cells were dried at 60° C. for 1 hour. 200 μl of FixDenat solution was added into each well. The reaction continued for 30 minutes at 37° C. for fixing DNA in the lymphocytes. Finally, 100 μl BrdU monoclonal antibody was added into each well for 90 minutes. The absorption value at 450 nm was read by an automatic microplate reader after substrate chromogenic reaction for detecting the proliferation of the cells. The group of DCs without loading and the group of phytohaemagglutinin (PHA) were used as negative and positive control respectively. […] Other peptides could not stimulate the proliferation of the reacting cells.
For further analyzing the proliferation of the cells, stimulating cells were blocked by anti-human MHC class II antibodies, for evaluating the effect of Th epitope peptides. Firstly, the optimal application concentration of MHC class II antibodies was determined by experiments to be 1:20 dilution (FIG. 3). […] Other peptides could not trigger cell proliferation, no matter whether MHC class II antibodies were applied or not (FIG. 4). […] The reacting cells were subject to magnetic bead sorting of CD4 T cells.

For the substance “IALITTKIA [predicted 9-mer from VH CDR3]”, at HLA-A2, the “binding capacity in T2 cell binding assay (in words)” value (from here on “binding capacity”) was “low binding capacity” and the T2 binding entry is listed as “+”.

Turning to “LITTKIAWY [predicted 9-mer from VH CDR3]”, on HLA-A2, the “binding capacity” value is “low binding capacity” and the T2 binding entry was “+”.

As for “NNKYYNTAL [predicted 9-mer from VH CDR2]”, at HLA-A2, the “binding capacity” value was “high binding capacity” and the T2 binding result is given as “+++”.

For the substance “VHSNGNTYL [predicted 9-mer from VL CDR1]”, at HLA-A2, the “binding capacity” value is on record as “low binding capacity” and the T2 binding entry is recorded as “+”.

Take “phytohaemagglutinin [PHA, reference compound]”: the “proliferation after blocking by MHC class II antibodies” value in experiment [1] (anti-human MHC class II antibodies 1:20 dilution) is “blocked dramatically”. Moreover, the “proliferation of reacting cells 6B11-CTLs” value in experiment [1] (stimulating DCs loaded with peptide 30 μg/ml or 6B11 40 μg/ml, 120 hours, BrdU, A450) is “significant proliferation”. In addition, the “proliferation of sorted CD4 T cells” value in the experiment on CD4 T cells is “could trigger the proliferation”.
